How the values were obtained:
GSK3β [1] = molecular target: T1, GSK3β (Homo sapiens, UniProt P49841); test: biochemical
Protocol: (§1) Reactions were terminated by the addition of 10 mM EDTA. Substrate and product were separated electrophoretically and fluorescence intensity of the substrate and product was determined by Labchip EZ Reader II (Caliper Life Sciences, MA). The kinase activity was measured as percent conversion. The reactions were performed in duplicate for each sample. […] The results were analyzed by Genedata Assay Analyzer. The percent inhibition was plotted against the compound concentration and the IC50 value was determined from the logistic dose-response curve fitting.

GSK3α = GSK3α (Homo sapiens, UniProt P49840); test: biochemical
Protocol: as §1

GSK3β [2] = molecular target: T1, GSK3β; conditions: Caliper assay; GSK3β over GSK3α
Protocol: as §1

T1 sequence (P49841 whole entry): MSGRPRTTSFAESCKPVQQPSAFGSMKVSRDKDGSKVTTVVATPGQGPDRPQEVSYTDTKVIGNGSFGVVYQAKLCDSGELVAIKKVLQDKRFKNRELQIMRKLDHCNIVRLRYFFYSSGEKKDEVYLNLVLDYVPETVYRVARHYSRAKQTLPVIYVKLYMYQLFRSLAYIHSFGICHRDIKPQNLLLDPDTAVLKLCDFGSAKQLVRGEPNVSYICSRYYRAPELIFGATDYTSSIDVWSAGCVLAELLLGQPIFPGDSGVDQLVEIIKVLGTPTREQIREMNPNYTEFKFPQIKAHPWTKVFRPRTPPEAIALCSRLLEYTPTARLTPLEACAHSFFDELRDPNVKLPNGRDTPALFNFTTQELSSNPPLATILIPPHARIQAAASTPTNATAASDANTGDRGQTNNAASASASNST
GSK3α, sequence (P49840 whole entry): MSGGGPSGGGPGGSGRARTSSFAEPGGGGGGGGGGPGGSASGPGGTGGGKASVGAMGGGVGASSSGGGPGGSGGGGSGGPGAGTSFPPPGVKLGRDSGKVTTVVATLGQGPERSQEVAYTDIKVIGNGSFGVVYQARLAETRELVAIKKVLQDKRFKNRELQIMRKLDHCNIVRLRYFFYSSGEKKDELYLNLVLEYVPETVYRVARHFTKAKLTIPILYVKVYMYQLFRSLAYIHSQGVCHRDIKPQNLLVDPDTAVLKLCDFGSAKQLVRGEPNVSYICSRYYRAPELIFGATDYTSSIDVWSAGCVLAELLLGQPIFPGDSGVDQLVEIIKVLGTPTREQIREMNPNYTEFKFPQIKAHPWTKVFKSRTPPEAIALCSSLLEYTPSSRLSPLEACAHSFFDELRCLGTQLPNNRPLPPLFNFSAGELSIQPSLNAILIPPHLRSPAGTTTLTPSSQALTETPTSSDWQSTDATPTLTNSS

| SMILES | IC50 (GSK3β [1]) [nM] | IC50 (GSK3α) [nM] | GSK3β fold selectivity (GSK3β [2]) [fold] |
| --- | --- | --- | --- |
| CC(C)c1[nH]nc2c1[C@]1(CCc3ccccc31)C1=C(CC(C)(C)CC1=O)N2 (stereo in doubt) [Compound 243] | 27 | 178 | 6.6 |
| CC1(C)CC(=O)C2=C(C1)Nc1n[nH]c(C3CC(F)(F)C3)c1[C@@]2(C)c1cccc(C(F)(F)F)c1 (stereo in doubt) [Compound 249] | 1550 | 4790 | 3.1 |
| COc1ccccc1[C@H]1C2=C(CC(C)(C)CC2=O)Nc2n[nH]c(C3CC(F)(F)C3)c21 (stereo in doubt) [Compound 251] | 84 | 1250 | 14.9 |
| COc1ccccc1[C@@H]1C2=C(CC(C)(C)CC2=O)Nc2n[nH]c(C3CC(F)(F)C3)c21 (stereo in doubt) [Compound 252] | 23 | 191 | 8.3 |
| COc1ccccc1[C@@]1(C)C2=C(CC(C)(C)CC2=O)Nc2n[nH]c(C3CC(F)(F)C3)c21 (stereo in doubt) [Compound 255] | 13400 | 28000 | 2.1 |
| CC(C)(C)Cc1[nH]nc2c1[C@](C)(c1ccccc1)C1=C(CC(C)(C)CC1=O)N2 (stereo in doubt) [Compound 272] | 15 | 215 | 14.3 |
| CC(C)(C)Cc1[nH]nc2c1[C@@](C)(c1ccc(F)cc1)C1=C(CC(C)(C)CC1=O)N2 (stereo in doubt) [Compound 277] | 949 | 2800 | 3.0 |
| COc1ccccc1[C@H]1C2=C(CC(C)(C)CC2=O)Nc2n[nH]c(CC(C)(C)C)c21 (stereo in doubt) [Compound 279] | 14 | 135 | 9.6 |
| CC(C)(C)Cc1[nH]nc2c1[C@@]1(CCc3ccccc31)C1=C(CC(C)(C)CC1=O)N2 (stereo in doubt) [Compound 282] | 1.7 | 28 | 16.5 |
| CC(C)(C)Cc1[nH]nc2c1[C@]1(CCc3ccccc31)C1=C(CC(C)(C)CC1=O)N2 (stereo in doubt) [Compound 283] | 212 | 1910 | 9.0 |

Further compounds by falling IC50 (GSK3β [1]), results first:

| IC50 (GSK3β [1]) [nM] | IC50 (GSK3α) [nM] | GSK3β fold selectivity (GSK3β [2]) [fold] | SMILES |
| --- | --- | --- | --- |
| 2520 | 9330 | 3.7 | COc1ccccc1[C@]1(C)C2=C(CC(C)(C)CC2=O)Nc2n[nH]c(C3CC(F)(F)C3)c21 (stereo in doubt) [Compound 254] |
| 1910 | 10600 | 5.6 | COc1ccccc1[C@@H]1C2=C(CC(C)(C)CC2=O)Nc2n[nH]c(CC(C)(C)C)c21 (stereo in doubt) [Compound 280] |
| 1050 | 6700 | 6.4 | CC(C)(C)Cc1[nH]nc2c1[C@@](C)(c1ccccc1)C1=C(CC(C)(C)CC1=O)N2 (stereo in doubt) [Compound 273] |
| 790 | 4760 | 6.0 | CC(C)(C)Cc1[nH]nc2c1[C@]1(CCc3cc(F)ccc31)C1=C(CC(C)(C)CC1=O)N2 (stereo in doubt) [Compound 286] |
| 104 | 1060 | 10.2 | CC(C)(C)Cc1[nH]nc2c1[C@](C)(c1ccc(F)cc1)C1=C(CC(C)(C)CC1=O)N2 (stereo in doubt) [Compound 276] |
| 30 | 86 | 2.9 | CC1(C)CC(=O)C2=C(C1)Nc1n[nH]c(C3CC(F)(F)C3)c1[C@]2(C)c1cccc(C(F)(F)F)c1 (stereo in doubt) [Compound 248] |
| 11 | 249 | 22.6 | CC(C)(C)Cc1[nH]nc2c1[C@@]1(CCc3cc(F)ccc31)C1=C(CC(C)(C)CC1=O)N2 (stereo in doubt) [Compound 285] |

— patent publication US20160375006A1, “USES OF PARALOG-SELECTIVE INHIBITORS OF GSK3 KINASES” (priority 2012, published 2016)
